Results: patent publication US7955294B2, “Intermittent dosing of nitric oxide gas” (Sensormedics Corporation, priority 2004, dated 2011)

Key:
E. coli = test: Survival of bacteria under cycled high/low NO gas exposure (FIG. 9); format: cell-based; details: 160 ppm NO gas 30 minutes then 20 ppm 3.5 hours, cycled every 4 hours for 24 hours; compared to air
Protocol: (§1) The effectiveness of the intermittent high dose delivery of nitric oxide gas in combating microorganisms was tested and verified. Briefly, the experimental methods were as follows. Inoculums of varying bacteria was prepared to a suspension of 2.5×10^8 cfu/ml, and diluted 1:1000 in sterile normal saline. Three milliliters of the inoculums were used per well in a sterile culture place. Exposure of the inoculums were performed in an exposure chamber, which has been described for example, in Ghafarri, A. et al., “A direct nitric oxide gas delivery system for bacterial and mammalian cell cultures,” Nitric Oxide. 12(3):129-40 (May 2005), which is hereby incorporated by reference as if fully set forth herein. The inoculums were exposed to 160 ppm of NO gas at a flow rate of 2.5 liters per minute for 30 minutes followed by exposure to 20 ppm of NO gas for 3.5 hours. The exposure to high and low concentrations of NO gas was repeatedly cycled every 4 hours for 24 hours. At various times (e.g., 0, 4, 8, and 12 hours), samples were taken and plated to determine the survivability of the bacteria as determined by counting cfu/ml.
(§2) FIGS. 6-9 show the survival of various bacteria used in the experiment with NO gas compared to exposure to air as control.

[1] = system: P. aeruginosa (ATCC#27853); test: Survival of bacteria under cycled high/low NO gas exposure (FIG. 7); format: cell-based; details: 160 ppm NO gas 30 minutes then 20 ppm 3.5 hours, cycled every 4 hours for 24 hours; compared to air
Protocol: as §1, §2

[2] = system: mycothiol in wild type M. smegmatis; test: Mycothiol level by HPLC after NO gas exposure (FIG. 11); format: cell-based, Mycobacterium smegmatis; details: 400 ppm NO gas, compared to exposure to air
Protocol: Further experiments were conducted to assay and measure the mycothiol level using HPLC in wild type M. smegmatis after exposure to 400 ppm NO gas and were compared to mycothiol level after exposure to air.

S. aureus (ATCC#25923) = test: Survival of bacteria under cycled high/low NO gas exposure (FIG. 6); format: cell-based; details: 160 ppm NO gas 30 minutes then 20 ppm 3.5 hours, cycled every 4 hours for 24 hours; compared to air
Protocol: as §1, §2

Mycobacteria = test: Sensitivity of various microorganisms to NO gas damage; format: cell-based; details: compared with various other microorganisms
Protocol: (§3) Additional studies were performed to test the hypothesis that the effect of NO gas in killing microorganisms is related to thiol function. […] This may be due to Mycobacteria having an exceptional thiol, mycothiol, that maintains the redox balance in the cell and protects the cell from nitrosative and oxidative stress. In order to test this hypothesis, sensitivities to NO gas was compared between mycothiol-deficient Mycobacterium smegmatis Mutant MshA to its wild type counterpart, mc^2 155 by exposing both strains to 200 ppm of NO gas. MshA is an enzyme needed in mycothiol biosynthesis.

[3] = system: P. aeruginosa (clinical strain from Cystic Fibrosis); test: Survival of bacteria under cycled high/low NO gas exposure (FIG. 8); format: cell-based; details: 160 ppm NO gas 30 minutes then 20 ppm 3.5 hours, cycled every 4 hours for 24 hours; compared to air
Protocol: as §1, §2

[4] = system: mycothiol-deficient Mycobacterium smegmatis Mutant MshA; test: Survival of mycothiol-deficient mutant versus wild type on exposure to NO gas (FIG. 10); format: cell-based; details: 200 ppm NO gas; wild type counterpart mc^2 155
Protocol: as §3

## [N]=O [NO gas, nitric oxide]
E. coli
  survival of E. coli (cfu/ml): effective method of killing the bacteria
[1]
  survival of P. aeruginosa ATCC#27853 (cfu/ml): effective method of killing the bacteria
[2]
  level of mycothiol in the mycobacterium: reduced compared to exposure to air
S. aureus (ATCC#25923)
  survival of S. aureus (cfu/ml): effective method of killing the bacteria
Mycobacteria
  sensitivity of Mycobacteria to NO gas damage: less sensitive
[3]
  survival of P. aeruginosa clinical strain from Cystic Fibrosis (cfu/ml): effective method of killing the bacteria
[4]
  sensitivity of MshA mutant to NO gas versus wild type: more sensitive
  time to kill MshA mutant versus wild type: killed in less time than its wild type counterpart
